In this assay the target is GABAA receptor. Description: Steroid inhibition of [35S]-TBPS binding. Particulars: rat brain cortical membranes, 3 nM [35S]-TBPS, in the presence of 5 mM GABA. The method, then: Steroid Inhibition of TBPS Binding
Briefly, cortices are rapidly removed following decapitation of carbon dioxide-anesthetized Sprague-Dawley rats ([…]). The cortices are homogenized in 10 volumes of ice-cold 0.32 M sucrose using a glass/teflon homogenizer and centrifuged at 1500×g for 10 min at 4° C. The resultant supernatants are centrifuged at 10,000×g for 20 min at 4° C. to obtain the P2 pellets. The P2 pellets are resuspended in 200 mM NaCl/50 mM Na—K phosphate pH 7.4 buffer and centrifuged at 10,000×g for 10 min at 4° C. This washing procedure is repeated twice and the pellets are resuspended in 10 volumes of buffer. Aliquots ([…]) of the membrane suspensions are incubated with 3 nM [^35S]-TBPS and […] aliquots of test drug dissolved in dimethyl sulfoxide (DMSO) (final 0.5%) in the presence of 5 mM GABA. The incubation is brought to a final volume of 1.0 mL with buffer. […] Following a 90 min incubation at room temp, the assays are terminated by filtration through glass fiber filters (Schleicher and Schuell No. 32) using a cell harvester (Brandel) and rinsed three times with ice-cold buffer. Filter bound radioactivity is measured by liquid scintillation spectrometry. Non-linear curve fitting of the overall data for each drug averaged for each concentration is done using Prism (GraphPad).
Various compounds are or can be screened to determine their potential as modulators of [^35S]-TBPS binding in vitro. These assays are or can be performed in accordance with the above discussed procedures.

Structures are written as SMILES. Some results are limits rather than exact numbers.

Broadly, the IC50 is the midpoint of a concentration-inhibition curve. In the case of `CN(CC(=O)[C@H]1CC[C@H]2[C@@H]3CC[C@@H]4C[C@](C)(O)CC[C@@H]4[C@H]3CC[C@]12C)c1ccc(F)cc1` [Compound 43], the half-inhibitory concentration (IC50) lay in the range of 10 to 50 nM. The same measure for `CCOC[C@@]1(O)CC[C@H]2[C@H](CC[C@@H]3[C@@H]2CC[C@]2(C)[C@@H](C(=O)N4CCc5ccccc5C4)CC[C@@H]32)C1` [Compound 44]: 50 to 100 nM; for `CCOC[C@@]1(O)CC[C@H]2[C@H](CC[C@@H]3[C@@H]2CC[C@]2(C)[C@@H](C(=O)N[C@H](C)c4ccc(C#N)cc4)CC[C@@H]32)C1` [Compound 48]: 100 to 500 nM. In the case of `CCOC[C@@]1(O)CC[C@H]2[C@H](CC[C@@H]3[C@@H]2CC[C@]2(C)[C@@H](C(=O)N(C)[C@H](C)c4ccc(C#N)cc4)CC[C@@H]32)C1` [Compound 49] it was 50 to 100 nM; in that of `CCOC[C@@]1(O)CC[C@H]2[C@H](CC[C@@H]3[C@@H]2CC[C@]2(C)[C@@H](C(=O)N4CCCCC4)CC[C@@H]32)C1` [Compound 50], 100 to 500 nM; in that of `CCOC[C@@]1(O)CC[C@H]2[C@H](CC[C@@H]3[C@@H]2CC[C@]2(C)[C@@H](C(=O)N4CCC[C@H]4c4ncco4)CC[C@@H]32)C1` [Compound 55], > 500 nM. The same measure for `CCOC[C@@]1(O)CC[C@H]2[C@H](CC[C@@H]3[C@@H]2CC[C@]2(C)[C@@H](C(=O)N(C)[C@H](CC)c4ccc(F)cc4)CC[C@@H]32)C1` [Compound 56]: 100 to 500 nM. In the case of `CCOC[C@@]1(O)CC[C@H]2[C@H](CC[C@@H]3[C@@H]2CC[C@]2(C)[C@@H](C(=O)N(C)[C@@H](CC)c4ccc(F)cc4)CC[C@@H]32)C1` [Compound 57], the half-maximal inhibitory concentration (IC50) was in the range of 100 to 500 nM.

With `CCOC[C@@]1(O)CC[C@H]2[C@H](CC[C@@H]3[C@@H]2CC[C@]2(C)[C@@H](C(=O)N[C@H](CC)c4ccc(F)cc4)CC[C@@H]32)C1` [Compound 58], the IC50 is > 500 nM. In the case of `CCOC[C@@]1(O)CC[C@H]2[C@H](CC[C@@H]3[C@@H]2CC[C@]2(C)[C@@H](C(=O)N4CCC[C@@H]4c4ncco4)CC[C@@H]32)C1` [Compound 60] it was > 500 nM; in that of `CCOC[C@@]1(O)CC[C@H]2[C@H](CC[C@@H]3[C@@H]2CC[C@]2(C)[C@@H](C(=O)N(C)[C@H](C)c4ccc(F)cc4)CC[C@@H]32)C1` [Compound 61], 100 to 500 nM; in that of `CN(CC(=O)[C@H]1CC[C@H]2[C@@H]3CC[C@H]4C[C@](C)(O)CC[C@@H]4[C@H]3CC[C@]12C)c1ccccc1` [Compound 63], 100 to 500 nM. The same measure for `C[C@@]1(O)CC[C@H]2[C@@H](CC[C@@H]3[C@@H]2CC[C@]2(C)[C@@H](C(=O)CNc4ccccc4)CC[C@@H]32)C1` [Compound 64]: 50 to 100 nM; for `CCOC[C@]12CC[C@@](C)(O)C[C@@H]1CC[C@H]1[C@@H]3CC[C@H](C(=O)CN(C)c4ccccc4)[C@@]3(C)CC[C@@H]12` [Compound 65]: 100 to 500 nM; for `CCOC[C@]12CC[C@@](C)(O)C[C@@H]1CC[C@H]1[C@@H]3CC[C@H](C(=O)CNc4ccccc4)[C@@]3(C)CC[C@@H]12` [Compound 66]: 50 to 100 nM. In the case of `C[C@H](c1ccc(C#N)cc1)N(C)C(=O)[C@H]1CC[C@H]2[C@@H]3CC[C@@H]4C[C@@](O)(C(F)(F)F)CC[C@@H]4[C@H]3CC[C@]12C` [Compound 69], the concentration for half-maximal inhibition (IC50) lay in the range of 100 to 500 nM. Regarding `C[C@@H](c1ccc(C#N)cc1)N(C)C(=O)[C@H]1CC[C@H]2[C@@H]3CC[C@@H]4C[C@@](O)(C(F)(F)F)CC[C@@H]4[C@H]3CC[C@]12C` [Compound 70], the half-inhibitory concentration (IC50) lay in the range of 100 to 500 nM.

For the compound `C[C@]12CC[C@](O)(C(F)(F)F)C[C@@H]1CC[C@@H]1[C@@H]2CC[C@]2(C)[C@@H](C(=O)CNc3ccccc3)CC[C@@H]12` [Compound 73], the half-maximal inhibitory concentration (IC50) is 50 to 100 nM. With `CN(CC(=O)[C@H]1CC[C@H]2[C@@H]3CC[C@H]4C[C@@](O)(C(F)(F)F)CC[C@]4(C)[C@H]3CC[C@]12C)c1ccccc1` [Compound 74], the IC50 was > 500 nM. Consider `COC[C@]12CC[C@@](C)(O)C[C@H]1CC[C@H]1[C@@H]3CC[C@H](C(=O)CN(C)c4ccccc4)[C@@]3(C)CC[C@@H]12` [Compound 75], for which the 50% inhibitory concentration (IC50) was in the range of 10 to 50 nM.

With `COC[C@]12CC[C@@](C)(O)C[C@H]1CC[C@H]1[C@@H]3CC[C@H](C(=O)CNc4ccccc4)[C@@]3(C)CC[C@@H]12` [Compound 76], the half-maximal inhibitory concentration (IC50) was < 10 nM. Consider `COC[C@]12CC[C@](O)(C(F)(F)F)C[C@H]1CC[C@H]1[C@@H]3CC[C@H](C(=O)CNc4ccccc4)[C@@]3(C)CC[C@@H]12` [Compound 77], for which the IC50 lay in the range of 10 to 50 nM.

Regarding `COC[C@]12CC[C@](O)(C(F)(F)F)C[C@H]1CC[C@H]1[C@@H]3CC[C@H](C(=O)Nc4ccccc4)[C@@]3(C)CC[C@@H]12` [Compound 78], the IC50 was 50 to 100 nM.

For the compound `COC[C@]12CC[C@](O)(C(F)(F)F)C[C@H]1CC[C@H]1[C@@H]3CC[C@H](C(=O)N(C)Cc4ccccc4)[C@@]3(C)CC[C@@H]12` [Compound 79], the IC50 lay in the range of 100 to 500 nM. `COC[C@]12CC[C@](O)(C(F)(F)F)C[C@H]1CC[C@H]1[C@@H]3CC[C@H](C(=O)NC4CCCCC4)[C@@]3(C)CC[C@@H]12` [Compound 80]: the half-maximal inhibitory concentration (IC50) is > 500 nM. Consider `CCOC[C@@]1(O)CC[C@H]2[C@H](CC[C@@H]3[C@@H]2CC[C@]2(C)[C@@H](C(=O)CN(C)c4ccccc4)CC[C@@H]32)C1` [Compound 83], for which the half-maximal inhibitory concentration (IC50) was in the range of 100 to 500 nM.

For `CCOC[C@@]1(O)CC[C@H]2[C@H](CC[C@@H]3[C@@H]2CC[C@]2(C)[C@@H](C(=O)CNc4ccccc4)CC[C@@H]32)C1` [Compound 84], the half-inhibitory concentration (IC50) lay in the range of 10 to 50 nM. In the case of `CCOC[C@@]1(O)CC[C@H]2[C@@H](CC[C@@H]3[C@@H]2CC[C@]2(C)[C@@H](C(=O)CN(C)c4ccccc4)CC[C@@H]32)C1` [Compound 85] it was > 500 nM; in that of `CCOC[C@@]1(O)CC[C@H]2[C@@H](CC[C@@H]3[C@@H]2CC[C@]2(C)[C@@H](C(=O)CNc4ccccc4)CC[C@@H]32)C1` [Compound 86], 100 to 500 nM. As for `C[C@@]1(O)CC[C@@]2(C)[C@@H](CC[C@@H]3[C@@H]2CC[C@]2(C)[C@@H](Nc4ccccc4)CC[C@@H]32)C1` [Compound 87], the IC50 lay in the range of 100 to 500 nM. Turning to `CN(c1ccccc1)[C@H]1CC[C@H]2[C@@H]3CC[C@H]4C[C@](C)(O)CC[C@]4(C)[C@H]3CC[C@]12C` [Compound 88], the IC50 was > 500 nM. Consider `C[C@@]1(O)CC[C@@]2(C)[C@@H](CC[C@@H]3[C@@H]2CC[C@]2(C)[C@@H](Nc4ccc(F)cc4)CC[C@@H]32)C1` [Compound 89], for which the concentration for half-maximal inhibition (IC50) lay in the range of 100 to 500 nM. Turning to `C[C@@]1(O)CC[C@@]2(C)[C@@H](CC[C@@H]3[C@@H]2CC[C@]2(C)[C@@H](Nc4cccc(F)c4)CC[C@@H]32)C1` [Compound 90], the half-inhibitory concentration (IC50) was 100 to 500 nM.

The record behind these values is US12655175B2, “C17, C20, and C21 substituted neuroactive steroids and their methods of use” (Sage Therapeutics, LLC, priority 2016, dated 2026).
